Data taken from publication PMC8963254, “Effects of Lysine N-ζ-Methylation in Ultrashort Tetrabasic Lipopeptides (UTBLPs) on the Potentiation of Rifampicin, Novobiocin, and Niclosamide in Gram-Negative Bacteria” (Antibiotics, 2022).
≈ marks a conversion by molar mass, not a printed value. Where two headings read alike, the source gives them in different places. Non-standard residues stand in square brackets, D forms with d. Residues, ends and D or L forms follow the SMILES beside them. *: point of attachment. Lys(Me) = CNCCCC[C@H](N)C(=O)O; Octanoyl = CCCCCCCC(=O)*

What was measured:
A. baumannii ATCC 17978 [1] = format: cell-based, Acinetobacter baumannii; details: ATCC 17978, 18 h
Summary of the method: (§1)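 MIC was determined by broth microdilution following CLSI guidelines. Serially varied compound concentrations were incubated with bacterial inoculum at 5 × 10^5 CFU/mL (final) for 18 h at 37 °C. Growth was scored as turbidity by absorbance at 590 nm.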

A. baumannii ATCC 17978 [2] = format: cell-based, Acinetobacter baumannii; details: for MICUTBLP: UTBLP alone
Summary of the method: (§2)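 Values derive from a two-agent checkerboard with an 18 h, 37 °C incubation. FICI cut-offs: ≤0.5 synergy, 0.5–4 additive, >4 antagonism.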

A. baumannii 92247 = format: cell-based, Acinetobacter baumannii; details: for MICUTBLP: UTBLP alone
Summary of the method: as §2

A. baumannii AB027 [3] = format: cell-based, Acinetobacter baumannii; details: for MICUTBLP: UTBLP alone
Summary of the method: as §2

E. coli 94393 = assay: microbe, parasite or virus in culture; format: cell-based, Escherichia coli; details: 94393, 18 h
Summary of the method: as §1

E. coli 94474 [4] = assay: microbe, parasite or virus in culture; format: cell-based, Escherichia coli; details: 94474, 18 h
Summary of the method: as §1

E. cloacae 118564 = assay: microbe, parasite or virus in culture; format: cell-based, Enterobacter cloacae; details: 118564, 18 h
Summary of the method: as §1

A. baumannii AB92247 = assay: microbe, parasite or virus in culture; format: cell-based, Acinetobacter baumannii; details: AB92247, 18 h
Summary of the method: as §1

A. baumannii AB027 [5] = assay: microbe, parasite or virus in culture; format: cell-based, Acinetobacter baumannii; details: AB027, 18 h
Summary of the method: as §1

K. pneumoniae 113250 = assay: microbe, parasite or virus in culture; format: cell-based, Klebsiella pneumoniae; details: 113250, 18 h
Summary of the method: as §1

E. coli 94474 [6] = format: cell-based, Escherichia coli; details: for MICUTBLP: UTBLP alone
Summary of the method: as §2

[7] = tested on: P. aeruginosa PA259-96196; format: cell-based, Pseudomonas aeruginosa; details: for MICUTBLP: UTBLP alone
Summary of the method: as §2

P. aeruginosa PAO1 [8] = format: cell-based, Pseudomonas aeruginosa; details: for MICUTBLP: UTBLP alone
Summary of the method: as §2

[9] = tested on: P. aeruginosa PA262-101856; format: cell-based, Pseudomonas aeruginosa; details: for MICUTBLP: UTBLP alone
Summary of the method: as §2

E. faecalis ATCC 29212 = format: cell-based, Enterococcus faecalis
Summary of the method: as §2

MSSE 81388 = format: cell-based, Staphylococcus epidermidis
Summary of the method: as §2

MRSE 61589 = format: cell-based, Staphylococcus epidermidis
Summary of the method: as §2

P. aeruginosa PAO1 [10] = format: cell-based, Pseudomonas aeruginosa; details: PAO1, 18 h
Summary of the method: as §1

[11] = UTBLP in combination with chloramphenicol
[12] = UTBLP in combination with niclosamide
[13] = UTBLP in combination with novobiocin
[14] = UTBLP in combination with rifampicin
[15] = chloramphenicol in combination with the UTBLP
[16] = niclosamide in combination with the UTBLP
[17] = novobiocin in combination with the UTBLP
[18] = rifampicin in combination with the UTBLP
[19] = UTBLP alone, plate with chloramphenicol

MIC (A. baumannii ATCC 17978 [1]): 64 µg/mL (≈ 66.2 µM)
MICUTBLP (A. baumannii ATCC 17978 [2]; plate with chloramphenicol): 64 µg/mL
MICUTBLP (A. baumannii ATCC 17978 [2]; plate with niclosamide): 64 µg/mL
MICUTBLP (A. baumannii ATCC 17978 [2]; plate with novobiocin): 64 µg/mL
MICUTBLP (A. baumannii ATCC 17978 [2]; plate with rifampicin): 64 µg/mL
MICUTBLP [MICcombo] (A. baumannii ATCC 17978 [2]; [11]): 8 µg/mL
MICUTBLP [MICcombo] (A. baumannii ATCC 17978 [2]; [12]): 1 µg/mL
MICUTBLP [MICcombo] (A. baumannii ATCC 17978 [2]; [13]): 4 µg/mL
MICUTBLP [MICcombo] (A. baumannii ATCC 17978 [2]; [14]): 2 µg/mL
MICantibiotic [MICcombo] (A. baumannii ATCC 17978 [2]; [15]): 32 µg/mL
MICantibiotic [MICcombo] (A. baumannii ATCC 17978 [2]; [16]): 4 µg/mL
MICantibiotic [MICcombo] (A. baumannii ATCC 17978 [2]; [17]): 0.25 µg/mL
MICantibiotic [MICcombo] (A. baumannii ATCC 17978 [2]; [18]): 0.031 µg/mL
MICUTBLP (A. baumannii 92247; plate with novobiocin): 32 µg/mL
MICUTBLP (A. baumannii 92247; plate with rifampicin): 32 µg/mL
MICUTBLP [MICcombo] (A. baumannii 92247; [13]): 1 µg/mL
MICUTBLP [MICcombo] (A. baumannii 92247; [14]): 0.5 µg/mL
MICantibiotic [MICcombo] (A. baumannii 92247; [17]): 0.125 µg/mL
MICantibiotic [MICcombo] (A. baumannii 92247; [18]): 0.063 µg/mL
MICUTBLP (A. baumannii AB027 [3]; plate with novobiocin): > 128 µg/mL
MICUTBLP (A. baumannii AB027 [3]; plate with rifampicin): > 128 µg/mL
MICUTBLP [MICcombo] (A. baumannii AB027 [3]; [13]): 16 µg/mL
MICUTBLP [MICcombo] (A. baumannii AB027 [3]; [14]): 16 µg/mL
MICantibiotic [MICcombo] (A. baumannii AB027 [3]; [17]): 0.031 µg/mL
MICantibiotic [MICcombo] (A. baumannii AB027 [3]; [18]): 0.002 µg/mL
MIC (E. coli 94393): 64 µg/mL (≈ 66.2 µM)
MIC (E. coli 94474 [4]): > 128 µg/mL
MIC (E. cloacae 118564): > 128 µg/mL
MIC (A. baumannii AB92247): 32 µg/mL (≈ 33.1 µM)
MIC (A. baumannii AB027 [5]): > 128 µg/mL
MIC (K. pneumoniae 113250): > 128 µg/mL
MICUTBLP (E. coli 94474 [6]; plate with novobiocin): > 128 µg/mL
MICUTBLP (E. coli 94474 [6]; plate with rifampicin): > 128 µg/mL
MICUTBLP [MICcombo] (E. coli 94474 [6]; [13]): 16 µg/mL
MICUTBLP [MICcombo] (E. coli 94474 [6]; [14]): 16 µg/mL
MICantibiotic [MICcombo] (E. coli 94474 [6]; [17]): 1 µg/mL
MICantibiotic [MICcombo] (E. coli 94474 [6]; [18]): 0.125 µg/mL
MICUTBLP ([7]; plate with novobiocin): > 128 µg/mL
MICUTBLP ([7]; plate with rifampicin): > 128 µg/mL
MICUTBLP [MICcombo] [7, 13]: 16 µg/mL
MICUTBLP [MICcombo] [7, 14]: 16 µg/mL
MICantibiotic [MICcombo] [7, 17]: 128 µg/mL
MICantibiotic [MICcombo] [7, 18]: 2 µg/mL
MICUTBLP (P. aeruginosa PAO1 [8]; plate with chloramphenicol): > 128 µg/mL
MICUTBLP (P. aeruginosa PAO1 [8]; plate with niclosamide): > 128 µg/mL
MICUTBLP (P. aeruginosa PAO1 [8]; plate with novobiocin): > 128 µg/mL
MICUTBLP (P. aeruginosa PAO1 [8]; plate with rifampicin): > 128 µg/mL
MICUTBLP [MICcombo] (P. aeruginosa PAO1 [8]; [11]): 16 µg/mL
MICUTBLP [MICcombo] (P. aeruginosa PAO1 [8]; [12]): 16 µg/mL
MICUTBLP [MICcombo] (P. aeruginosa PAO1 [8]; [13]): 16 µg/mL
MICUTBLP [MICcombo] (P. aeruginosa PAO1 [8]; [14]): 16 µg/mL
MICantibiotic [MICcombo] (P. aeruginosa PAO1 [8]; [15]): 2 µg/mL
MICantibiotic [MICcombo] (P. aeruginosa PAO1 [8]; [16]): 2 µg/mL
MICantibiotic [MICcombo] (P. aeruginosa PAO1 [8]; [17]): 32 µg/mL
MICantibiotic [MICcombo] (P. aeruginosa PAO1 [8]; [18]): 1 µg/mL
MICUTBLP ([9]; plate with novobiocin): > 128 µg/mL
MICUTBLP ([9]; plate with rifampicin): > 128 µg/mL
MICUTBLP [MICcombo] [9, 13]: 16 µg/mL
MICUTBLP [MICcombo] [9, 14]: 16 µg/mL
MICantibiotic [MICcombo] [9, 17]: 128 µg/mL
MICantibiotic [MICcombo] [9, 18]: 256 µg/mL
MICUTBLP (E. faecalis ATCC 29212; [19]): 32 µg/mL
MICUTBLP [MICcombo] (E. faecalis ATCC 29212; [11]): 4 µg/mL
MICchloramphenicol [MICcombo] (E. faecalis ATCC 29212; [15]): 4 µg/mL
MICUTBLP (MSSE 81388; [19]): 16 µg/mL
MICUTBLP [MICcombo] (MSSE 81388; [11]): 0.25 µg/mL
MICchloramphenicol [MICcombo] (MSSE 81388; [15]): 4 µg/mL
MICUTBLP (MRSE 61589; [19]): 16 µg/mL
MICUTBLP [MICcombo] (MRSE 61589; [11]): 8 µg/mL
MICchloramphenicol [MICcombo] (MRSE 61589; [15]): 4 µg/mL
MIC (P. aeruginosa PAO1 [10]): >128 µg/mL
Compound: CCCCCCCC(=O)NCCCC[C@H](NC(=O)CCCCCCC)C(=O)N[C@@H](CCCCNC)C(=O)N[C@@H](CCCCNC)C(=O)N[C@@H](CCCCNC)C(=O)N[C@@H](CCCCNC)C(N)=O [UTBLP 6] (Octanoyl-K(Octanoyl)[Lys(Me)][Lys(Me)][Lys(Me)][Lys(Me)]-NH2)
Interpretation (A. baumannii ATCC 17978 [2]; UTBLP + chloramphenicol): Additive (0.5 < x ≤ 4 is additive)
Interpretation (A. baumannii ATCC 17978 [2]; UTBLP + niclosamide): Synergy (FICI ≤ 0.5 is synergistic)
Interpretation (A. baumannii ATCC 17978 [2]; UTBLP + novobiocin): Synergy (FICI ≤ 0.5 is synergistic)
Interpretation (A. baumannii ATCC 17978 [2]; UTBLP + rifampicin): Synergy (FICI ≤ 0.5 is synergistic)
Interpretation (A. baumannii 92247; UTBLP + novobiocin): Synergy (FICI ≤ 0.5 is synergistic)
Interpretation (A. baumannii 92247; UTBLP + rifampicin): Synergy (FICI ≤ 0.5 is synergistic)
Interpretation (A. baumannii AB027 [3]; UTBLP + novobiocin): Synergy (FICI ≤ 0.5 is synergistic)
Interpretation (A. baumannii AB027 [3]; UTBLP + rifampicin): Synergy (FICI ≤ 0.5 is synergistic)
Interpretation (E. coli 94474 [6]; UTBLP + novobiocin): Synergy (FICI ≤ 0.5 is synergistic)
Interpretation (E. coli 94474 [6]; UTBLP + rifampicin): Synergy (FICI ≤ 0.5 is synergistic)
Interpretation ([7]; UTBLP + novobiocin): Synergy (FICI ≤ 0.5 is synergistic)
Interpretation ([7]; UTBLP + rifampicin): Synergy (FICI ≤ 0.5 is synergistic)
Interpretation (P. aeruginosa PAO1 [8]; UTBLP + chloramphenicol): Synergy (FICI ≤ 0.5 is synergistic)
Interpretation (P. aeruginosa PAO1 [8]; UTBLP + niclosamide): Synergy (FICI ≤ 0.5 is synergistic)
Interpretation (P. aeruginosa PAO1 [8]; UTBLP + novobiocin): Synergy (FICI ≤ 0.5 is synergistic)
Interpretation (P. aeruginosa PAO1 [8]; UTBLP + rifampicin): Synergy (FICI ≤ 0.5 is synergistic)
Interpretation ([9]; UTBLP + novobiocin): Synergy (FICI ≤ 0.5 is synergistic)
Interpretation ([9]; UTBLP + rifampicin): Additive (0.5 < x ≤ 4 is additive)
Interpretation (E. faecalis ATCC 29212; UTBLP + chloramphenicol): Additive (0.5 < x ≤ 4 is additive)
Interpretation (MSSE 81388; UTBLP + chloramphenicol): Additive (0.5 < x ≤ 4 is additive)
Interpretation (MRSE 61589; UTBLP + chloramphenicol): Additive (0.5 < x ≤ 4 is additive)
